Measured values as given in article PMC9377102, “Toxicity and toxicokinetics of the ethanol extract of Zuojin formula” (BMC Complementary Medicine and Therapies, 2022).
Like-named read-outs stand apart in the source and are kept apart here.

What was measured:
[1] = test system: CYP3A4, CYP1A2 and CYP2D6; settings: cited from earlier work
[2] = cited from earlier work
[3] = Toxicokinetics test in the satellite groups (UPLC-MS/MS of rat plasma); assay type: in vivo
Protocol: SD rats (5 ~ 6 weeks, 3/group/sex) were randomly allocated to three treatment groups and given the same dosage as those in the repeated toxicity experiment for 28 days. […] Carbamazepine was chosen as the internal standard (IS). The blood samples were centrifuged to obtain plasma. Then, 300 μL of acetonitrile containing 40 ng of IS was added to 100 μL of plasma. After vortexing for 1 min, the mixture was centrifuged at 17,000 rpm for 15 min at 4 °C. The supernatant of each sample was injected into a UPLC–MS/MS system for determination. The injection volume was 1 μL. UPLC–MS analysis was performed on a Thermo Fisher Scientific Ultimate 3000 UPLC system (San Jose, USA) and an API 4000 QTRAP mass spectrometer (Foster City, USA) equipped with an ESI source. The mobile phase consisted of 2 solvents: (A) water containing 0.1% formic acid and (B) 100% acetonitrile. For MS, multiple reaction monitoring (MRM) in positive ion mode was used as the scanning mode for the main components and IS in the plasma samples. The dwell time (DT), collision energy (CE), quadrupole 1 pre-rod bias (Q1) and quadrupole 3 pre-rod bias (Q3) are listed in Table 3.

[4] = test system: CYP3A4, CYP1A2 and CYP2D6; settings: cited from earlier work; remark: listed apart in the source
spleen = settings: mice, intraperitoneal injection 10 mg/kg; cited from earlier work
[5] = test system: thyroid hormone-induced diarrhoea; settings: rats, 60 mg/kg oral gavage for 7 days; cited from earlier work
[6] = test system: CD4+ Th, CD4+CXCR5+ Tfh cells and Foxp3+ Tregs; settings: mice, intraperitoneal injection 1 mg/kg; cited from earlier work
[7] = test system: diarrhoea-predominant irritable bowel syndrome; settings: rats, 50 and 100 mg/kg for 14 days; cited from earlier work
[8] = female SD rats, pure berberine 90 mg/kg orally, previous study, reference not given
[9] = male rats, pure berberine 90 mg/kg
[10] = female rats, Day 1, high dose TAZF 3.7 g/kg by gavage
[11] = female rats, Day 1, highest dose (berberine 72.08, epiberberine 7.42, coptisine 7.42, palmatine 18.26, jatrorrhizine 2.80, columbamine 5.93 mg/kg)
[12] = female rats, Day 1, low dose TAZF 0.4 g/kg by gavage
[13] = female rats, Day 1, lowest dose (berberine 8.01, epiberberine 0.82, coptisine 1.38, palmatine 2.03, jatrorrhizine 0.31, columbamine 0.66 mg/kg)
[14] = female rats, Day 1, middle dose (berberine 24.03, epiberberine 2.47, coptisine 2.47, palmatine 6.09, jatrorrhizine 0.93, columbamine 1.98 mg/kg)
[15] = female rats, Day 28, high dose TAZF 3.7 g/kg by gavage
[16] = female rats, Day 28, highest dose (berberine 72.08, epiberberine 7.42, coptisine 7.42, palmatine 18.26, jatrorrhizine 2.80, columbamine 5.93 mg/kg)
[17] = female rats, Day 28, low dose TAZF 0.4 g/kg by gavage
[18] = female rats, Day 28, lowest dose (berberine 8.01, epiberberine 0.82, coptisine 1.38, palmatine 2.03, jatrorrhizine 0.31, columbamine 0.66 mg/kg)
[19] = female rats, Day 28, middle dose (berberine 24.03, epiberberine 2.47, coptisine 2.47, palmatine 6.09, jatrorrhizine 0.93, columbamine 1.98 mg/kg)
[20] = male rats, Day 1, high dose TAZF 3.7 g/kg by gavage
[21] = male rats, Day 1, highest dose (berberine 72.08, epiberberine 7.42, coptisine 7.42, palmatine 18.26, jatrorrhizine 2.80, columbamine 5.93 mg/kg)
[22] = male rats, Day 1, low dose TAZF 0.4 g/kg by gavage
[23] = male rats, Day 1, lowest dose (berberine 8.01, epiberberine 0.82, coptisine 1.38, palmatine 2.03, jatrorrhizine 0.31, columbamine 0.66 mg/kg)
[24] = male rats, Day 1, middle dose (berberine 24.03, epiberberine 2.47, coptisine 2.47, palmatine 6.09, jatrorrhizine 0.93, columbamine 1.98 mg/kg)
[25] = male rats, Day 28, high dose TAZF 3.7 g/kg by gavage
[26] = male rats, Day 28, highest dose (berberine 72.08, epiberberine 7.42, coptisine 7.42, palmatine 18.26, jatrorrhizine 2.80, columbamine 5.93 mg/kg)
[27] = male rats, Day 28, low dose TAZF 0.4 g/kg by gavage
[28] = male rats, Day 28, lowest dose (berberine 8.01, epiberberine 0.82, coptisine 1.38, palmatine 2.03, jatrorrhizine 0.31, columbamine 0.66 mg/kg)
[29] = male rats, Day 28, middle dose (berberine 24.03, epiberberine 2.47, coptisine 2.47, palmatine 6.09, jatrorrhizine 0.93, columbamine 1.98 mg/kg)

COc1ccc2cc3[n+](cc2c1OC)CCc1cc2c(cc1-3)OCO2 [berberine]
Metabolism by CYP3A4, CYP1A2 and CYP2D6 [1]: metabolized | AUC0–36 [2, 8]: 88.8 ng·h/mL | Cmax [2, 8]: 29.2 ng/mL | AUC0–60 [2, 9]: 305.8 ng·h/mL | Cmax [2, 9]: 28.2 ng/mL | AUC(0-t) ([3]; female, SD, rat, plasma, po, 0.4 g/kg, female rats, Day 1, low dose TAZF 0.4 g/kg by gavage, read-out: AUC0-t): 122 ± 17.1 ng·h/mL | Cmax ([3]; female, SD, rat, plasma, po, 0.4 g/kg, female rats, Day 1, low dose TAZF 0.4 g/kg by gavage, read-out: Cmax): 149 ± 73 ng/mL | AUC(0-t) ([3]; female, SD, rat, plasma, po, 0.4 g/kg, female rats, Day 28, low dose TAZF 0.4 g/kg by gavage, read-out: AUC0-t): 838 ± 949 ng·h/mL | Cmax ([3]; female, SD, rat, plasma, po, 0.4 g/kg, female rats, Day 28, low dose TAZF 0.4 g/kg by gavage, read-out: Cmax): 324 ± 432 ng/mL | AUC(0-t) ([3]; female, SD, rat, plasma, po, 3.7 g/kg, female rats, Day 1, high dose TAZF 3.7 g/kg by gavage, read-out: AUC0-t): 306 ± 94.7 ng·h/mL | Cmax ([3]; female, SD, rat, plasma, po, 3.7 g/kg, female rats, Day 1, high dose TAZF 3.7 g/kg by gavage, read-out: Cmax): 219 ± 118 ng/mL | AUC(0-t) ([3]; female, SD, rat, plasma, po, 3.7 g/kg, female rats, Day 28, high dose TAZF 3.7 g/kg by gavage, read-out: AUC0-t): 153 ± 53.7 ng·h/mL | Cmax ([3]; female, SD, rat, plasma, po, 3.7 g/kg, female rats, Day 28, high dose TAZF 3.7 g/kg by gavage, read-out: Cmax): 23.8 ± 6.25 ng/mL | AUC(0-t) ([3]; male, SD, rat, plasma, po, 0.4 g/kg, male rats, Day 1, low dose TAZF 0.4 g/kg by gavage, read-out: AUC0-t): 1220 ± 389 ng·h/mL | Cmax ([3]; male, SD, rat, plasma, po, 0.4 g/kg, male rats, Day 1, low dose TAZF 0.4 g/kg by gavage, read-out: Cmax): 222 ± 180 ng/mL | AUC(0-t) ([3]; male, SD, rat, plasma, po, 0.4 g/kg, male rats, Day 28, low dose TAZF 0.4 g/kg by gavage, read-out: AUC0-t): 699 ± 644 ng·h/mL | Cmax ([3]; male, SD, rat, plasma, po, 0.4 g/kg, male rats, Day 28, low dose TAZF 0.4 g/kg by gavage, read-out: Cmax): 460 ± 276 ng/mL | AUC(0-t) ([3]; male, SD, rat, plasma, po, 3.7 g/kg, male rats, Day 1, high dose TAZF 3.7 g/kg by gavage, read-out: AUC0-t): 1860 ± 425 ng·h/mL | Cmax ([3]; male, SD, rat, plasma, po, 3.7 g/kg, male rats, Day 1, high dose TAZF 3.7 g/kg by gavage, read-out: Cmax): 219 ± 24.4 ng/mL | AUC(0-t) ([3]; male, SD, rat, plasma, po, 3.7 g/kg, male rats, Day 28, high dose TAZF 3.7 g/kg by gavage, read-out: AUC0-t): 608 ± 203 ng·h/mL | Cmax ([3]; male, SD, rat, plasma, po, 3.7 g/kg, male rats, Day 28, high dose TAZF 3.7 g/kg by gavage, read-out: Cmax): 136 ± 77.9 ng/mL | Systemic exposure after 28 days of administration vs single administration ([3]; rats, oral TAZF): much lower | Inhibition of CYP3A4, CYP1A2 and CYP2D6 [4]: inhibited | Immunosuppressive effect and spleen weight (spleen): strong immunosuppressive effect and reduced spleen weight | Effect on thyroid hormone-induced diarrhoea [5]: effect was also observed | T cell subset levels [6]: reduced levels of CD^4+ Th and CD^4+CXCR^5+ Tfh cells and an increased level of Foxp^3+ Tregs | Effect on diarrhoea-predominant irritable bowel syndrome [7]: improve diarrhoea-predominant irritable bowel syndrome

c1c2c(cc3c1OCO3)-c1cc3ccc4c(c3c[n+]1CC2)OCO4 [coptisine]
Cmax ([3]; male, SD, rat, in vivo, po, 0.4 g/kg): 45.49 ± 57.63 ng/mL | Cmax ([3]; male, SD, rat, in vivo, po, 0.4 g/kg, Cmax): 32.4 ± 33 ng/mL | Cmax ([3]; male, SD, rat, in vivo, po, 3.7 g/kg): 20.05 ± 13.57 ng/mL | Cmax ([3]; male, SD, rat, in vivo, po, 3.7 g/kg, Cmax): 32.3 ± 9.08 ng/mL | Systemic exposure after 28 days of administration vs single administration ([3]; rat, in vivo, po): much lower

COc1cc2c(cc1OC)-c1cc3ccc4c(c3c[n+]1CC2)OCO4 [epiberberine]
28-day AUC relative to the first day ([3]; rat, in vivo): 1 to 2 times | Inhibition of CYP3A4, CYP1A2 and CYP2D6 [4]: inhibited

COc1cc2c(cc1OC)-c1cc3ccc(OC)c(OC)c3c[n+]1CC2 [palmatine]
Metabolism by CYP3A4, CYP1A2 and CYP2D6 [1]: metabolized | AUC(0-t) [3, 10]: 38.00 ± 16.92 ng·h/mL | Cmax [3, 10]: 46.60 ± 27.16 ng/mL | Cmax mean [3, 11]: 46.60 ng/mL | T1/2 mean [3, 11]: 5.18 h | Tmax mean [3, 11]: 30 min | AUC(0-t) [3, 12]: 18.08 ± 4.07 ng·h/mL | Cmax [3, 12]: 27.93 ± 13.97 ng/mL | Cmax mean [3, 13]: 27.93 ng/mL | T1/2 mean [3, 13]: 5.96 h | Tmax mean [3, 13]: 25.2 min | AUC0-t mean [3, 14]: 90.31 ng·h/mL | Cmax mean [3, 14]: 77.60 ng/mL | T1/2 mean [3, 14]: 3.29 h | Tmax mean [3, 14]: 49.8 min | AUC(0-t) [3, 15]: 24.07 ± 12.21 ng·h/mL | Cmax [3, 15]: 5.67 ± 2.58 ng/mL | Cmax mean [3, 16]: 5.67 ng/mL | T1/2 mean [3, 16]: 3.98 h | Tmax mean [3, 16]: 49.8 min | AUC(0-t) [3, 17]: 116.47 ± 138.20 ng·h/mL | Cmax [3, 17]: 55.94 ± 72.88 ng/mL | Cmax mean [3, 18]: 55.94 ng/mL | T1/2 mean [3, 18]: 80.32 h | Tmax mean [3, 18]: 25.2 min | AUC0-t mean [3, 19]: 14.65 ng·h/mL | Cmax mean [3, 19]: 4.16 ng/mL | T1/2 mean [3, 19]: 9.33 h | Tmax mean [3, 19]: 79.8 min | AUC(0-t) [3, 20]: 342.51 ± 66.62 ng·h/mL | Cmax [3, 20]: 51.33 ± 17.52 ng/mL | Cmax mean [3, 21]: 51.33 ng/mL | T1/2 mean [3, 21]: 10.38 h | Tmax mean [3, 21]: 200 min | AUC(0-t) [3, 22]: 236.12 ± 103.55 ng·h/mL | Cmax [3, 22]: 52.47 ± 52.73 ng/mL | Cmax mean [3, 23]: 52.47 ng/mL | T1/2 mean [3, 23]: 12.88 h | Tmax mean [3, 23]: 200 min | AUC0-t mean [3, 24]: 318.68 ng·h/mL | Cmax mean [3, 24]: 71.53 ng/mL | T1/2 mean [3, 24]: 26.57 h | Tmax mean [3, 24]: 40.2 min | AUC(0-t) [3, 25]: 110.18 ± 34.30 ng·h/mL | Cmax [3, 25]: 32.93 ± 24.17 ng/mL | Cmax mean [3, 26]: 32.93 ng/mL | T1/2 mean [3, 26]: 11.01 h | Tmax mean [3, 26]: 245 min | AUC(0-t) [3, 27]: 36.98 ± 18.55 ng·h/mL | Cmax [3, 27]: 67.20 ± 74.82 ng/mL | Cmax mean [3, 28]: 67.20 ng/mL | T1/2 mean [3, 28]: 12.22 h | Tmax mean [3, 28]: 49.8 min | AUC0-t mean [3, 29]: 102.21 ng·h/mL | Cmax mean [3, 29]: 22.63 ng/mL | T1/2 mean [3, 29]: 2.90 h | Tmax mean [3, 29]: 720 min | Systemic exposure after 28 days of administration vs single administration ([3]; rats, oral TAZF): much lower

O=c1c2ccccc2nc2n1CCc1c-2[nH]c2ccccc12 [rutaecarpine]
Level in plasma ([3]; both, SD, rat, in vivo, po): < 0.5 ng/mL
